Experimental data taken from patent US8309121B2, “Dermatological compositions comprising avermectin nanocapsules” (Galderma S.A., priority 2006, dated 2012).

Key:
[1] = Stability of ivermectin in various excipients; type: physicochemical; details: for T 1 month 40° C. content / T 1 month Tambient content / T 3 months 40° C. content / T 3 months Tambient content: T0 in mg/g; for T 1 month 40° C. (% in brackets) / T 1 month Tambient (% in brackets) / T 3 months 40° C. (% in brackets) / T 3 months Tambient (% in brackets): relative to T0
Source text: (§1) There are numerous excipients used in the formulation of emulsions or liposomes which result in degradation of ivermectin. The Table below presents the results of tests of stability and solubility of ivermectin in various excipients: […]

[2] = Solubility of ivermectin in various excipients; type: physicochemical
Source text: as §1

[3] = in ceteareth-25, ceteareth-6, PEG-8-distearate, PEG-8-stearate, PEG-660-OH-stearate, PEG-4000, polyoxyethylene-10, glycerol monostearate S/E, propylene glycol dicaprylate, cetearyl octanoate, polyglycerol-3-diolate, C18-C36 triglycerides, Gamma cyclodextrin, soybean lecithin, cholesterol, stearic acid; cited from earlier work
[4] = cited from earlier work
[5] = in Labrafac Hydro WL1219 (caprylic/capric triglyceride PEG-4 esters)
[6] = in Labrafac Hydro WL1219, 1 month
[7] = in Lipoid S75-3 + benzyl alcohol, 1 month
[8] = in Lipoid S75-3 + benzyl alcohol
[9] = in Mygliol 812 (medium-chain triglycerides of caprylic and capric acids)
[10] = in Ph90H + benzyl alcohol, 1 month
[11] = in Solutol HS15 (PEG-15 hydroxystearate)

Substance: ivermectin
- Degradation by hydrogenated lecithins (in words) ([1]; hydrogenated lecithins, studies of Example 1): do not degrade
- T 1 month 40° C. content ([1]; in Benzyl alcohol, 1 month): 9.7
- T 1 month 40° C. (% in brackets) ([1]; in Benzyl alcohol, 1 month): (98%)
- T 1 month Tambient content ([1]; in Benzyl alcohol, 1 month): 9.8
- T 1 month Tambient (% in brackets) ([1]; in Benzyl alcohol, 1 month): (99%)
- T0 content ([1]; in Benzyl alcohol): 9.9 mg/g
- Stability (in words) ([1]; in Crodamol DA): Stable over 1 month
- T0 content [1, 5]: 9.0 mg/g
- T 1 month 40° C. content [1, 6]: 6.7
- T 1 month 40° C. (% in brackets) [1, 6]: (75%)
- T 1 month Tambient content [1, 6]: 8.5
- T 1 month Tambient (% in brackets) [1, 6]: (95%)
- T 3 months 40° C. content ([1]; in Labrafac Hydro WL1219): 4.2
- T 3 months 40° C. (% in brackets) ([1]; in Labrafac Hydro WL1219): (47%)
- T 3 months Tambient content ([1]; in Labrafac Hydro WL1219): 6.3
- T 3 months Tambient (% in brackets) ([1]; in Labrafac Hydro WL1219): (70%)
- T0 content ([1]; in Labrasol (PEG-8 caprylic/capric glycerides)): 8.1 mg/g
- T 1 month 40° C. content ([1]; in Labrasol, 1 month): 7.9
- T 1 month 40° C. (% in brackets) ([1]; in Labrasol, 1 month): (98%)
- T 1 month Tambient content ([1]; in Labrasol, 1 month): 8.1
- T 1 month Tambient (% in brackets) ([1]; in Labrasol, 1 month): (100%)
- T 3 months 40° C. content ([1]; in Labrasol): 5.6
- T 3 months 40° C. (% in brackets) ([1]; in Labrasol): (69%)
- T 3 months Tambient content ([1]; in Labrasol): 8.1
- T 3 months Tambient (% in brackets) ([1]; in Labrasol): (100%)
- T 1 month 40° C. content [1, 7]: 9.5
- T 1 month 40° C. (% in brackets) [1, 7]: (101%)
- T 1 month Tambient content [1, 7]: 9.5
- T 1 month Tambient (% in brackets) [1, 7]: (101%)
- T 3 months 40° C. content [1, 8]: 9.7
- T 3 months 40° C. (% in brackets) [1, 8]: (103%)
- T 3 months Tambient content [1, 8]: 9.2
- T 3 months Tambient (% in brackets) [1, 8]: (98%)
- T0 content [1, 8]: 9.4 mg/g
- T 1 month 40° C. content ([1]; in Miglyol 812, 1 month): 8.2
- T 1 month 40° C. (% in brackets) ([1]; in Miglyol 812, 1 month): (94%)
- T 1 month Tambient content ([1]; in Miglyol 812, 1 month): 8.3
- T 1 month Tambient (% in brackets) ([1]; in Miglyol 812, 1 month): (95%)
- T 3 months 40° C. content ([1]; in Miglyol 812): 8.4
- T 3 months 40° C. (% in brackets) ([1]; in Miglyol 812): (96%)
- T 3 months Tambient content ([1]; in Miglyol 812): 8.3
- T 3 months Tambient (% in brackets) ([1]; in Miglyol 812): (96%)
- T0 content ([1]; in Miglyol 812): 8.7 mg/g
- Stability (in words) [1, 9]: not perfectly stable
- T0 content ([1]; in Ph90H (Phospholipon 90H) + benzyl alcohol): 9.25 mg/g
- T 1 month 40° C. content [1, 10]: 9.5
- T 1 month 40° C. (% in brackets) [1, 10]: (103%)
- T 1 month Tambient content [1, 10]: 9.7
- T 1 month Tambient (% in brackets) [1, 10]: (105%)
- T0 content [1, 11]: 9.8 mg/g
- degradation at 1 month ([1]; in Solutol HS15, 1 month): 28%
- T 1 month 40° C. content ([1]; in Solutol HS15, 1 month): 7.1
- T 1 month 40° C. (% in brackets) ([1]; in Solutol HS15, 1 month): (72%)
- T 1 month Tambient content ([1]; in Solutol HS15, 1 month): 9.4
- T 1 month Tambient (% in brackets) ([1]; in Solutol HS15, 1 month): (95%)
- Solubility max ([2]; in Benzyl alcohol): 32.8 mg/g
- Solubility max ([2]; in Benzyl benzoate): 44.2 mg/g
- Solubility max ([2]; in Crodamol DA): 94.2 mg/g
- Solubility max [2, 5]: 70 mg/g
- Solubility max ([2]; in Miglyol 812): 17.9 mg/g
- Solubility (in words) [2, 9]: relatively low solubility
- Solubility max [2, 11]: 10.8 mg/g
- Stability in lipophilic excipients (in words) [3]: degradation
- Stability in a hydrophilic medium (in words) ([4]; hydrophilic medium): degraded
- solubility in water ([4]; water): 5 µg/mL
